Results reported in article PMC9057082 (RSC Advances, 2020).

Assay: Total antioxidant capacity
Assay type: biochemical
Settings: residual hydrogen peroxide measured at 505 nm; mean ± standard deviation

## O=C1O[C@H]([C@@H](O)CO)C(O)=C1O [Ascorbic acid]
  Total anti-oxidant activity IC50: 174.8 ± 12.3 µg/mL
